Assay results: patent US20120015923A1, “USE OF ANDROGRAPHOLIDE COMPOUNDS FOR TREATING INFLAMMATION AND AIRWAY DISORDERS” (NATIONAL UNIVERSITY OF SINGAPORE, priority 2009, published 2012)

Key:
[1] = test system: lung tissue eosinophilia, mucus secretion and mast cells; assay: Histologic analysis of lung tissue (H&E, PAS, toluidine-blue); assay type: in vivo, BALB/c mice; settings: OVA-challenged mice; for lung tissue eosinophilia / eosinophil-rich leukocyte infiltration (H&E): vs DMSO control
Experimental: Lungs were fixed in 10% neutral formalin, paraffinized, cut into 6-μm sections, and stained with hematoxylin and eosin (H&E) for examining cell infiltration and with periodic acid-Schiff stain (PAS) for measuring mucus production. Quantitative analysis was performed blinded as described below. Mast cells were detected in lung tissue using toluidine-blue staining, and the number of mast cells was counted in paraffin sections. The percentage of degranulated mast cells in the lung was calculated by counting the number of cells with 10% of extrusion of granules.
For both H&E and PAS staining, bronchioles selected for analysis were of similar structure and sizes, with clear morphology presentations and minimum disruptions of the surrounding tissues that could be formed during sectioning. The scoring of inflammatory and globlet cells was performed in 2-4 preparations of each mouse and mean scores were calculated from 4-5 mice. Peribronchial cell counts were performed in a blind manner and scored as known in the art. A five-point scoring system (0-4) was adapted: 0, no cells; 1, a few cells; 2, a ring of cells one cell layer deep; 3, a ring of cells two to four cells deep; 4, a ring of cells more than four cells deep. Goblet cell hyperplasia in the airway epithelium was assessed blind and scored according to the percentage of PAS-positive mucus-producing cells. A five-point (0-4) grading system was as follows: 0, no goblet cells; 1, <25%; 2, 25-50%; 3, 50-75%; 4, >75%. Briefly, to determine the severity of inflammatory cell infiltration, peribronchial cell counts were performed blind based on a 5-point scoring system: 0, no cells; 1, a few cells; 2, a ring of cells 1 cell layer deep; 3, a ring of cells 2-4 cells deep; 4, a ring of cells of >4 cells deep. To determine the extent of mucus production, goblet cell hyperplasia in the airway epithelium was quantified blind using a 5-point grading system: 0, no goblet cells; 1, <25%; 2, 25-50%; 3, 50-75%; 4, >75%. Scoring of inflammatory cells and goblet cells was performed in at least 3 different fields for each lung section. Mean scores were obtained from 4 animals. *Significant difference from DMSO control, P<0.05.

[2] = test system: IL-6, IL-8 and RANTES mRNA in normal human bronchial epithelial cells; assay: TNF-α-induced cytokine mRNA expression in normal human bronchial epithelial cells; assay type: cell-based; settings: 10 ng/ml TNF-α for 12 hours; 30 μM
Experimental: To determine the effects of andrograhpolide on OVA-specific immune responses in lymphocytes, thoracic lymph node cells were grown in bronchial epithelial bulletkit medium (Cambrex BioScience, Walkersvile, Md., USA), supplemented with bovine pituitary extract (2 ml), hydrocortisone (0.5 ml), recombinant human EGF (0.5 ml), epinephrine (0.5 ml), transferrin (0.5 ml), insulin (0.5 ml), retinoic acid (0.5 ml), triiodothyronine (0.5 ml), gentamycin sulfate (50 μg/ml), and amphotericin B (50 ng/ml). The cells were incubated in 5% CO2 incubator at 37° C., and subcultured at 80% to 85% confluency. Cells were exposed to 200 μg/ml OVA for 72 hours. Concanavalin A (Con A, 10 μug/ml) was used as a positive control. Supernatants from parallel triplicate cultures were analyzed for cytokine levels by ELISA. Normal human bronchial epithelial cells were cultured in optimized bronchial epithelial bulletkit medium with supplements (Lonza, Basel, Switzerland). Cells were pretreated with 30 μM andrographolide or vehicle (0.01% DMSO) 4 hours before stimulation with 10 ng/ml tumor necrosis factor (TNF)-α. Total and nuclear proteins, and mRNA were extracted from cells at specified time intervals.
(§1) PCR amplifications were then performed using the multiwell thermal cycler on 1 μl cDNA template in a 25 μl reaction volume. The reaction volume contained 10.5 μl nuclease-free water, 0.5 μl forward primer (10 μM), 0.5 μl reverse primer (10 μM) and 12.5 μl 2×PCR master mix (50 units/ml TaqDNA polymerase, 400 μM dATP, 400 μM dGTP, 400 μM dCTP, 400 μM dTTP and 3 mM MgCl2).

[3] = test system: inflammatory gene expression in lung tissues; assay: Pulmonary mRNA expression of inflammatory markers (RT-PCR); assay type: in vivo, BALB/c mice; settings: lungs 24 hours after last OVA aerosol
Experimental: Lungs were isolated from the thoracic cavity 24 hours after the last OVA or saline challenge, and stored in RNAlater. The samples were first incubated at […] overnight for the RNAlater to permeate into the lung tissues to stabilize the RNA. The samples were then stored at −80° C. Before RNA isolation, lung tissues were thawed at […] They were then removed from the RNAlater and immersed in 1 ml Trizol solution. Then, homogenization was performed using a homogenizer (SilentCrusher M, Heidolph Elektro GmbH & Co., Kelheim, Genman). All samples were placed on ice to prevent RNA degradation. The homogenates were then centrifuged at 12,000 g for 10 min at 4° C. The clear RNA containing supernatant was then decanted, incubated for 5 min in room temperature, and 0.2 ml of chloroform was added. All tubes were shaken vigorously for 15 seconds and incubated at room temperature for 3 minutes before being centrifuged at 12,000 g for 15 min at 4° C. About 500 μl of the colourless upper aqueous layer containing RNA, was decanted. 0.5 ml of isopropanol was added and mixed for 30 sec, before being incubated at room temperature for 10 minutes. The tubes were then centrifuged at 12000 rpm for 15 min at 4° C. The supernatant was discarded and 1 ml of 75% ethanol was added to the RNA pellet. Centrifugation at 8500 rpm for 5 minutes at 4° C. was then performed to wash the pellet. The supernatant was again discarded and the washed RNA pellet was air-dried at room temperature for 10 min. The dried RNA pellet was dissolved in 100 μl of ribonuclease-free DEPC water and incubated at 55° C. for 10 minutes. The amount and purity of RNA present in the sample was quantified using the spectrophotometer (NanoDrop ND-1000 from Thermo Risher
Reverse transcription was performed to synthesize single-stranded complementary DNA (cDNA) templates from the RNA extracted. Volume containing 1 μg total RNA was calculated based on the nucleic acid concentration measured from the spectrophotometer, and was topped up to 20 μl with DEPC water. 10.58 μl of master mix was then added to each sample. Then, cDNA was synthesized from 1 μg of RNA using a multiwall thermal cycler (GeneAmp PCR system 2700 from Applied Biosystems, Foster City, Calif., USA) by bringing the reaction volume to 95° C. for 10 minutes and 42° C. for 30 minutes.
as §1

Compound	E-selectin [1]	VCAM-1 [1]	airway mucus production / mucus hypersecretion (PAS) ([1]; 1 mg/kg)	lung tissue eosinophilia / eosinophil-rich leukocyte infiltration (H&E) ([1]; 1 mg/kg)	TNF-α-induced up-regulation of IL-6 mRNA expression [2]	TNF-α-induced up-regulation of IL-8 mRNA expression [2]	TNF-α-induced up-regulation of RANTES mRNA expression [2]	ICAM-1 gene expression in lung [3]	VCAM-1 gene expression in lung [3]	YM1 gene expression in lung [3]	inducible nitric oxide synthase mRNA expression in lung tissues [3]	AMCase mRNA expression in lung tissues ([3]; DDAG 1 mg/kg)	E-selectin mRNA expression in lung tissues ([3]; DDAG 1 mg/kg)	Muc5ac mRNA expression in lung tissues ([3]; DDAG 1 mg/kg)	YKL-40 mRNA expression in lung tissues ([3]; DDAG 1 mg/kg)	Ym2 mRNA expression in lung tissues ([3]; DDAG 1 mg/kg)	total degranulating mast cell counts in toluidine-blue staining lung section ([1]; 1 mg/kg, vs DMSO vehicle control)	COX2 mRNA expression in lung tissues ([3]; DDAG 1 mg/kg)	IL-17 mRNA expression in lung tissues ([3]; DDAG 1 mg/kg)	IL-33 mRNA expression in lung tissues ([3]; DDAG 1 mg/kg)
C=C1CC[C@@H]2[C@](C)(CO)[C@H](O)CC[C@@]2(C)[C@@H]1C/C=C1/C(=O)OC[C@H]1O [Andrographolide]	inhibited	inhibited	attenuated	attenuated	noticeably blocked	noticeably blocked	noticeably blocked	inhibition	inhibition	inhibition	attenuated	markedly down-regulated	attenuated	attenuated	markedly down-regulated	markedly down-regulated	–	–	–	–
C=C1CCC2C(C)(CO)C(O)CCC2(C)C1C=CC1=CCOC1=O (stereo not shown) [DDAG, 14-Deoxy-11,12-didehydroandrographolide]	–	–	significantly halted	markedly diminished	–	–	strongly suppressed	–	–	–	–	strong suppression	strong suppression	strong suppression	strong suppression	strong suppression	drastically decreased	strong suppression	strong suppression	strong suppression
